From BindingDB's records for patent US11834453 (Array Biopharma, 2023) come the findings set out here.

Sequence of Receptor tyrosine-protein kinase erbB-2 (P04626 whole entry): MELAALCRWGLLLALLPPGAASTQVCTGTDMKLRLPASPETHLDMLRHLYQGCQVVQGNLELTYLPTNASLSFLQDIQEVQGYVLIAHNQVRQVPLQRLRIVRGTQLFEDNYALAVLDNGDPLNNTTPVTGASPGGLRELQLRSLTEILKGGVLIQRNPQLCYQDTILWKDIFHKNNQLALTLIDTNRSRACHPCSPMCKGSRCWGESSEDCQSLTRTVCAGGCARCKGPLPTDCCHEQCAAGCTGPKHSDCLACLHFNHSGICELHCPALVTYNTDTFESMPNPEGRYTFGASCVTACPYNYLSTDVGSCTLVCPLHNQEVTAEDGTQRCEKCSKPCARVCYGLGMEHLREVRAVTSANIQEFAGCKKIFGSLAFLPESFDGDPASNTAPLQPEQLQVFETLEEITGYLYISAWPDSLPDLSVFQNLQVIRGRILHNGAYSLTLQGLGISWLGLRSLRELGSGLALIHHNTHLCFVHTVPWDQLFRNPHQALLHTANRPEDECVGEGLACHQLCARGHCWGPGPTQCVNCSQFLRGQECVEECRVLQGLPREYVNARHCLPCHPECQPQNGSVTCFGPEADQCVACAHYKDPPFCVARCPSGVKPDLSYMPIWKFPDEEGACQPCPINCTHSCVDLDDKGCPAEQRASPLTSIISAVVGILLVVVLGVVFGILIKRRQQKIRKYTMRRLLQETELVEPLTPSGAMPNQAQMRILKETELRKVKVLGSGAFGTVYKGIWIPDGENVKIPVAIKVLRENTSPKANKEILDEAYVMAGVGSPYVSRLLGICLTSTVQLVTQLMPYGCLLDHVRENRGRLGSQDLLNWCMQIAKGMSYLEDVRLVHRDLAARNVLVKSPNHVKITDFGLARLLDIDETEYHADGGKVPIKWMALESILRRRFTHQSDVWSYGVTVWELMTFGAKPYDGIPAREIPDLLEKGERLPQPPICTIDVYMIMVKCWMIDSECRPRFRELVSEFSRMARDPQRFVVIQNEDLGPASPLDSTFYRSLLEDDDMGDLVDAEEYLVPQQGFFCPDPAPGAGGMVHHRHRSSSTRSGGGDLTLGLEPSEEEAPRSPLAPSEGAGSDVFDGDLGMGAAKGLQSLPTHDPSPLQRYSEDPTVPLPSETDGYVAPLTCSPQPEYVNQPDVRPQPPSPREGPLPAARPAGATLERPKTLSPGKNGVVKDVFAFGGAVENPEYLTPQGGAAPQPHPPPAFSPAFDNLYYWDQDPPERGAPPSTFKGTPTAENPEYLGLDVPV

In the test the target is Receptor tyrosine-protein kinase erbB-2 (Homo sapiens, UniProt P04626). Description: ErbB Enzyme Assay. Here is the method:
The kinases were incubated with 250 nM TK-substrate biotin (CisBio, part of cat #62TK0PEC) at 1 mM ATP along with test compounds in a buffer consisting of 25 mM HEPES, pH 7.4, 10 mM MgCl2, 0.01% Triton X-100, and 2% DMSO in a volume of 8 uL. Compounds were prepared as a three-fold serial dilution in DMSO and added to the assay to give the appropriate final concentration. After 30-minute incubation at 22 C., the reaction was quenched by adding 8 uL of quench solution containing 62.5 nM Sa-XL665 and 0.25x TK-Ab-Cryptate in HTRF detection buffer (all from CisBio, part of cat #62TK0PEC). After a 1-hour incubation at 22 C., the extent of reaction was determined using a PerkinElmer EnVision multimode plate reader via HTRF dual wavelength detection, and the percent of control (POC) was calculated using a ratiometric emission factor.
`CCOc1ncc2ncnc(Nc3ccc(Oc4ccc5c(c4)ncn5C)c(C)c3)c2n1` [US11834453, Example 13] came in with a half-maximal inhibitory concentration (IC50) of 121 nM.

In the case of `Cc1cc(Nc2ncnc3cnc(N4CC5C6CCC(O6)C5C4)nc23)ccc1Oc1ccc2c(c1)ncn2C` (stereo not drawn) [US11834453, Example 16], the IC50 amounted to 60.6 nM.

For `Cc1cc(Nc2ncnc3cnc(N4C[C@H]5CC[C@@H]4CO5)nc23)ccc1Oc1ccn2ncnc2c1` [US11834453, Example 127], 114 nM corresponded to half-maximal inhibition (IC50).

`Cc1cc(Nc2ncnc3cnc(N4CCCO4)nc23)ccc1Oc1ccc2c(c1)ncn2C` [US11834453, Example 178]: the 50% inhibitory concentration (IC50) amounted to 67.1 nM.

As to `Cc1cc(Nc2ncnc3cnc(N(C)C[C@@H](C)O)nc23)ccc1Oc1ccc2c(c1)ncn2C` [US11834453, Example 189], the half-inhibitory concentration (IC50) is 32.2 nM.

`Cc1cc(Nc2ncnc3cnc(N4CC(C)(O)CO4)nc23)ccc1Oc1ccc2c(c1)ncn2C` (stereo not drawn) [US11834453, Example 191] gave a 50% inhibitory concentration (IC50) of 171 nM.

In the case of `Cc1cc(Nc2ncnc3cnc(N(C)C[C@H](C)O)nc23)ccc1Oc1ccc2c(c1)ncn2C` [US11834453, Example 195], the half-maximal inhibitory concentration (IC50) was 37.5 nM.

In turn, `Cc1cc(Nc2ncnc3cnc(N(C)CCO)nc23)ccc1Oc1ccc2c(c1)ncn2C` [US11834453, Example 208] displayed an IC50 of 25.6 nM.

By IC50 is commonly meant the midpoint of a concentration-inhibition curve. A low value points to greater potency in that assay.
